Holding throughout (format): binding
Common to all, as to design: KINOMEscan: ABL1(F317L)-phosphorylated / KINOMEscan: ABL1(H396P)-nonphosphorylated / KINOMEscan: ABL1(H396P)-phosphorylated / KINOMEscan: ABL1(M351T)-phosphorylated / KINOMEscan: ABL1(T315I)-phosphorylated / KINOMEscan: ABL1-nonphosphorylated / KINOMEscan: ABL1-phosphorylated / KINOMEscan: ACVR2A / KINOMEscan: ACVR2B / KINOMEscan: ADCK3 / KINOMEscan: ADCK4 / KINOMEscan: AKT1 / KINOMEscan: AKT3 / KINOMEscan: ALK / KINOMEscan: ARK5 / KINOMEscan: AURKA / KINOMEscan: AURKC / KINOMEscan: BIKE / KINOMEscan: BMPR1A / KINOMEscan: BMPR1B / KINOMEscan: BMX / KINOMEscan: BRK / KINOMEscan: BRSK1 / KINOMEscan: BRSK2 / KINOMEscan: CAMK1 / KINOMEscan: CAMK1D / KINOMEscan: CAMK1G / KINOMEscan: CAMK2A / KINOMEscan: CAMK2B / KINOMEscan: AAK1 / KINOMEscan: CAMK2D / KINOMEscan: CAMK2G / KINOMEscan: ABL1(F317I)-nonphosphorylated / KINOMEscan: ABL1(F317I)-phosphorylated / KINOMEscan: ABL1(F317L)-nonphosphorylated: unit: % Ctrl

For assay [1], the target named is T1, panel of 442 kinases (Homo sapiens, UniProt Q9UKE5).
T1 construct: purchased KINOMEscan
T1 sequence (Q9UKE5 whole entry): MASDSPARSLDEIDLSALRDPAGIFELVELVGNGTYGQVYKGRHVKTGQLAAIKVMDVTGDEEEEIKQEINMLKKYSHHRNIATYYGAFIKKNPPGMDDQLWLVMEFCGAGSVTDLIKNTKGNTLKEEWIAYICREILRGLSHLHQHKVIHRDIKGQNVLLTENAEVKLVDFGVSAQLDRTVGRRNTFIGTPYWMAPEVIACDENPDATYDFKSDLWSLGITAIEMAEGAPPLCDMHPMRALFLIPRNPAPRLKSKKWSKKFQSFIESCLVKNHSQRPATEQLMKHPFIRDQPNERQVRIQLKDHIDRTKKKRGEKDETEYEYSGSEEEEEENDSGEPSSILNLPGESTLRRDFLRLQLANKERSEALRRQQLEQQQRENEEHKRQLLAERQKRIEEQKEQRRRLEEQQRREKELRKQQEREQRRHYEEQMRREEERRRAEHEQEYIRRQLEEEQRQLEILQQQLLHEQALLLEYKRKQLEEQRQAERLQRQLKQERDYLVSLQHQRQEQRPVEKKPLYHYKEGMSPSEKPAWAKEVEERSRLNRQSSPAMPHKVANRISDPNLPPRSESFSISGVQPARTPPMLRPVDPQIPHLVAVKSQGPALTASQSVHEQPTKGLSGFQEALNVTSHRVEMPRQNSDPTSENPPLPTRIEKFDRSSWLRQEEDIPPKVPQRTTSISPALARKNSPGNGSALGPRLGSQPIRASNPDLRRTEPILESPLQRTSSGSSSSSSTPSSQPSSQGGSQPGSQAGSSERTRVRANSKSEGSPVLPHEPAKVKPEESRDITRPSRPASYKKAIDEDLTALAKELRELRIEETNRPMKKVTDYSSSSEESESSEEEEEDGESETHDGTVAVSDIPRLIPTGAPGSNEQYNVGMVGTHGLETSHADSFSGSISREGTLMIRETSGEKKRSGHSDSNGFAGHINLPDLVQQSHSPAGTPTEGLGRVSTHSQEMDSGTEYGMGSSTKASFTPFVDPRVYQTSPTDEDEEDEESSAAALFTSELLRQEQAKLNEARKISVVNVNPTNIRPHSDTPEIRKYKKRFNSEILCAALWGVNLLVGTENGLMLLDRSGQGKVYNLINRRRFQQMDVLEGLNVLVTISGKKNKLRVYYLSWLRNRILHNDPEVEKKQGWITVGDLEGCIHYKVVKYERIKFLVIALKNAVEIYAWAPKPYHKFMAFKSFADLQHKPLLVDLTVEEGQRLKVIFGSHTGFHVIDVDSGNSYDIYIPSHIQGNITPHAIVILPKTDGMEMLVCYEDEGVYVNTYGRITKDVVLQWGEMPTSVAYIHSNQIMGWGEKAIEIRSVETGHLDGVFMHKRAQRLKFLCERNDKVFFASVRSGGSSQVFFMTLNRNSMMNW
The note with it: kinase TNIK; compound concentration 10 µM. The text has this: (§1) We assessed the selectivity of members of this scaffold using the KINOMEscan methodology across a near comprehensive panel of 442 kinases [[18,27]].

Assay [2] concerns the target T2, panel of 442 kinases (Homo sapiens, UniProt Q9UM73).
T2 construct: purchased KINOMEscan
The note with it: Compound Concentration 10 µM.
From the text: as §1

Assay [3] concerns the target T3, panel of 442 kinases (Homo sapiens, UniProt Q16539).
T3 construct: purchased KINOMEscan
The conditions noted are these: Compound Concentration 10 µM.
From the text: as §1

The text below walks through data of publication PMC3914206.

T3 sequence (Q16539 whole entry): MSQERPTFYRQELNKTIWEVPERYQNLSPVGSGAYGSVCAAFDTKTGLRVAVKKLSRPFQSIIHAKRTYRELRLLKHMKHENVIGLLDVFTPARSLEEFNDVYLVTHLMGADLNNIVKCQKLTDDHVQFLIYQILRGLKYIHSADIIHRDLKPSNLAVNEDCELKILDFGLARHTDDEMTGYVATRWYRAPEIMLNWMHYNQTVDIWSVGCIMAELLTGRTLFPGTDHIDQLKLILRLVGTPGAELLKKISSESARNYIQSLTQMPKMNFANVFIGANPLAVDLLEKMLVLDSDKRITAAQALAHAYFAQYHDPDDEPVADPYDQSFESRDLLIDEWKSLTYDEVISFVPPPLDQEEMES
T2 sequence (Q9UM73 19-1620): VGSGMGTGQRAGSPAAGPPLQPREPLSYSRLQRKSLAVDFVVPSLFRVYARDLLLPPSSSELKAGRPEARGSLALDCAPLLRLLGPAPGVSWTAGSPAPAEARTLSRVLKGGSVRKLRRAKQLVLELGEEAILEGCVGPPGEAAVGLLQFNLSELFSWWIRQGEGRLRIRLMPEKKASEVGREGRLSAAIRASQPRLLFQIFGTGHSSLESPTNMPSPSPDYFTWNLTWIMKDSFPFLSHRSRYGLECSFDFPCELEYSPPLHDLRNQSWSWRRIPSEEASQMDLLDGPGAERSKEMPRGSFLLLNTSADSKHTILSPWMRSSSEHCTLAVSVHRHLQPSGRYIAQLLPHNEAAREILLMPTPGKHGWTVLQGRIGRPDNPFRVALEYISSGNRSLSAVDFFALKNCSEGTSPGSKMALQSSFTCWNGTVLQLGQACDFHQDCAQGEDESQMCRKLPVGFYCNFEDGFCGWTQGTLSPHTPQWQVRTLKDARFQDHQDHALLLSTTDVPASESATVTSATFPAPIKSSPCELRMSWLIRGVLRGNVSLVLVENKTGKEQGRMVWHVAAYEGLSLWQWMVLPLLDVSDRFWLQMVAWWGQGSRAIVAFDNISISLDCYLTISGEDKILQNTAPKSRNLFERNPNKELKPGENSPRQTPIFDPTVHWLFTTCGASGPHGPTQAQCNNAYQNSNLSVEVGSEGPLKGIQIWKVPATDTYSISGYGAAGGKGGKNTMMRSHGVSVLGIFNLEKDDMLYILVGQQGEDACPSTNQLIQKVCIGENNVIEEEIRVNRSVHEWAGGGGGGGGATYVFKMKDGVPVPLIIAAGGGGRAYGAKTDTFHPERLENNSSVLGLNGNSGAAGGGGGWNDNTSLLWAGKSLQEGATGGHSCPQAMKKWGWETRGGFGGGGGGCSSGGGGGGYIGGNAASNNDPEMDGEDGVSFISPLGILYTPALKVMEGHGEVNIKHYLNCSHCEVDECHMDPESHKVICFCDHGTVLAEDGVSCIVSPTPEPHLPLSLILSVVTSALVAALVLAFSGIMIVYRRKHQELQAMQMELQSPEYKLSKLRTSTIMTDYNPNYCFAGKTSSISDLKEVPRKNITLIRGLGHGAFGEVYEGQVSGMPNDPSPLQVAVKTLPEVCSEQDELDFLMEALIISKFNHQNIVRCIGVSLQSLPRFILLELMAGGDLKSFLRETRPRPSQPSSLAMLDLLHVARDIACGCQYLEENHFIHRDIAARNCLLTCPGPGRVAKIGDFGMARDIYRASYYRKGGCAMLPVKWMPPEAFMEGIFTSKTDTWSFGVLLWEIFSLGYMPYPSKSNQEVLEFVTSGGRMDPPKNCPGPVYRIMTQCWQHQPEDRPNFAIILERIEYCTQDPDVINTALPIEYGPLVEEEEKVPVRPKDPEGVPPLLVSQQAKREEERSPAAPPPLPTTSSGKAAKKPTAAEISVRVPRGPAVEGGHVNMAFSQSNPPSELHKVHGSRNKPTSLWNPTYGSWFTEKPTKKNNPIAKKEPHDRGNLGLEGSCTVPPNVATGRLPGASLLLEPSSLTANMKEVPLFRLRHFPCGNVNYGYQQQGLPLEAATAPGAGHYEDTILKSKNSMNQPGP

In the case of `COc1cc(C(=O)N2CCC(N3CCN(C)CC3)CC2)ccc1Nc1ncc2c(n1)N(C)c1ccccc1C(=O)N2C` [15 (LRRK2-IN-1)], the “% Ctrl, TNIK” value on panel of 442 kinases [1] is 100 % Ctrl. For the same compound, at panel of 442 kinases [2], the “KINOMEscan: ALK” value was 13. Moreover, on panel of 442 kinases [3], the “KINOMEscan: p38-alpha” value is 87.
For the compound `COc1cc(C(=O)N2CCC(N3CCN(C)CC3)CC2)ccc1Nc1ncc2c(n1)N1CCc3cccc(c31)C(=O)N2C` [Compound 24], the “% Ctrl, TNIK” value on panel of 442 kinases [1] is reported as 56 % Ctrl. Moreover, the “KINOMEscan: ALK” value at panel of 442 kinases [2] came out at 31.
On to `COc1cc(C(=O)N2CCC(N3CCN(C)CC3)CC2)ccc1Nc1ncc2c(n1)N(C1CCCC1)c1ccccc1C(=O)N2C` [Compound 25, 11-cyclopentyl-2-((2-methoxy-4-(4-(4-methylpiperazin-1-yl)piperidine-1-carbonyl)phenyl)amino)-5-methyl-5H-benzo[e]pyrimido[5,4-b][1,4]diazepin-6(11H)-one], for which the “% Ctrl, TNIK” value on panel of 442 kinases [1] was found to be 100 % Ctrl. Further, the “KINOMEscan: ALK” value on panel of 442 kinases [2] is 15. For the same compound, at panel of 442 kinases [3], the “KINOMEscan: p38-alpha” value is reported as 99.
Take `CCOc1cc(C(=O)N2CCC(N3CCN(C)CC3)CC2)ccc1Nc1ncc2c(n1)N(C1CCCC1)c1ccccc1C(=O)N2C` [Compound 26]: the “% Ctrl, TNIK” value on panel of 442 kinases [1] is 94 % Ctrl. For the same compound, the “KINOMEscan: ALK” value at panel of 442 kinases [2] stood at 21. The “KINOMEscan: p38-alpha” value on panel of 442 kinases [3] is recorded as 94.
